Measurements taken from patent US3968204A, “Antibiotic A-2315” (priority 1975, dated 1976).
Values after ≈ are worked out from the molar mass of the structure shown.

Tests used:
[1] = test system: Actinomyces bovis; assay: MIC, anaerobic bacteria; assay type: cell-based
[2] = test system: Bacteriodes fragilis ssp. thetaotamicron; assay: MIC, anaerobic bacteria; assay type: cell-based
[3] = test system: Veillonella alcalescens; assay: MIC, anaerobic bacteria; assay type: cell-based; settings: Veillonella parvula
[4] = test system: Ruminal VFA; assay: Ruminal volatile fatty acids in vivo in fistulated lambs; design: species or system sheep; settings: 17 days
Experimental: Further evidence of the ability of the A-2315 antibiotics to increase feed-utilization efficiency is provided by an in vivo test of A-2315 factor A in sheep, using a procedure as follows:
Two groups of fistulated lambs are allowed slightly more than their normal feed ration for 17 days. Test compound is administered to one group in the feed on a g/ton basis.
The rumen fluids of both groups of animals are sampled on days 3, 7, 10, 14 and 17 of the treatment period.
The fermentation of the ruminal samples is halted by addition of meta-phosphoric acid. Each sample is diluted, centrifuged at 2000 × gravity for 10 minutes; the supernatants are analyzed for volatile fatty acids via the gas chromatographic method of E. S. Erwin, G. J. Marco and E. M. Emery in J. Dairy Sci., 44, 1768 (1966). Molar percentages of ruminal volatile fatty acids are calculated, and the effect is measured as a comparison of the molar percentages of propionic acid in treated animals to those in contemporary controls.

[5] = test system: Staphylococcus aureus 3074; assay: Disc-plate MIC; settings: Disc-Plate Method; benzylpenicillin-resistant, methicillin-resistant

## CC1=CC(O)CC(O)Cc2nc(co2)C(=O)NC(C)C(=O)OC(C(C)C)C(C)C=CC(=O)NCC=C1 (stereo not shown) [Factor A]
[1]
  MIC: 16 mg/L (≈ 31.8 µM)
[2]
  MIC: 128 mg/L (≈ 254 µM)
[3]
  MIC: 16 mg/L (≈ 31.8 µM)
[4]; 15g/ton in feed
  % Increase Over Control (propionic acid): 4.8%
  % Increase over Control (butyric acid): 2.4%
  Increase Relative to Control (butyric acid): 21.6%
  Increase Relative to Control (propionic acid): 18.2%
[4]; 15 g/ton in feed, control 11.1
  % Butyric Acid Conc.: 13.5%
[4]; 15g/ton in feed, control 26.2
  % Propionic Acid Conc.: 31.0%
[5]
  MIC: 0.4 μg/disc
